This note sets out measurements from patent US7256187B2, “Rifamycin C-11 oxime derivatives effective against drug-resistant microbes” (Cumbre Pharmaceuticals Inc., priority 2004, dated 2007).

≈ marks a conversion by molar mass, not a printed value.

Format in all cases: cell-based
Assay [1] deals with Escherichia coli ATCC25922. In words: MIC, microbroth dilution. The note with it: Escherichia coli ATCC25922, rifS; read-out: Antimicrobial activity (MIC).
Assay [2] deals with Haemophilus influenzae ATCC10211. In words: MIC, microbroth dilution. The following applies: Haemophilus influenzae ATCC10211, rifS; read-out: Antimicrobial activity (MIC).
The test system of assay [3] is Staphylococcus aureus ATCC29213 rpoB^D417Y. In words: microbe, parasite or virus in culture. The following applies: Staphylococcus aureus ATCC29213 rpoB^D417Y, rifR; read-out: Antimicrobial activity (MIC). On the procedure: (§1) Representative compounds were assayed for antimicrobial activity as follows: Minimum Inhibitory Concentrations (“MICs”) were determined by the microbroth dilution method as per NCCLS guidelines (National Committee for Clinical Laboratory Standards. 2000. Methods for dilution antimicrobial susceptibility tests for bacteria that grow aerobically, 5th ed. M7-A5. National Committee for Clinical Laboratory Standards, Wayne, Pa.), except that all growth incubations were conducted at 37° C. Bacterial cultures were tested in the following bacteriological media: S. aureus, S. epidermidis, and E. coli in Cation-Adjusted Mueller-Hinton Broth, S. pneumoniae in THY Broth supplemented with 1 mg/mL catalase under 5% CO2 atmosphere, S. pyogenes in THY Broth, E. faecalis in BHI Broth, H. influenzae in BHI Broth supplemented with 0.75 μL of 1 mg/mL NAD and 150 μL of 1 mg/ml hematin per 5 mL, and M. smegmatis in Middlebrook Broth plus ADC Enrichment.
(§2) S. aureus ATCC 29213 RpoB^H418Y is a rifampin-resistant strain with a mutation in the RpoB gene of RNA polymerase. […] S. aureus EN1252a gyrA^S84L grlA^S80F is a quinolone-resistant strain due to double gene mutations of DNA gyrase and topoisomerase IV.

Assay [4] concerns Staphylococcus aureus EN1252a gyrA^S84L grlA^S80F. Kind of assay: microbe, parasite or virus in culture. The note with it: Staphylococcus aureus EN1252a gyrA^S84L grlA^S80F, cipR; read-out: Antimicrobial activity (MIC). On the procedure: as §1, §2
Assay [5] concerns Staphylococcus aureus ATCC29213 rpoB^H418Y. Kind of assay: microbe, parasite or virus in culture. The following applies: Staphylococcus aureus ATCC29213 rpoB^H418Y, rifR; read-out: Antimicrobial activity (MIC). On the procedure:
as §1, §2

The test system of assay [6] is Staphylococcus aureus ATCC29213. In words: MIC, microbroth dilution. The following applies: Staphylococcus aureus ATCC29213, rifS; read-out: Antimicrobial activity (MIC).
Assay [7] relates to Streptococcus pyogenes ATCC19615. In words: MIC, microbroth dilution. The note with it: Streptococcus pyogenes ATCC19615, rifS; read-out: Antimicrobial activity (MIC).
The subject of assay [8] is Streptococcus pneumoniae ATCC6303. Kind of assay: MIC, microbroth dilution. The following applies: Streptococcus pneumoniae ATCC6303, rifS; read-out: Antimicrobial activity (MIC).
Assay [9] relates to Staphylococcus epidermidis ATCC12228. In words: MIC, microbroth dilution. The following applies: Staphylococcus epidermidis ATCC12228, rifS; read-out: Antimicrobial activity (MIC).
Assay [10] concerns Mycobacterium smegmatis ATCC700084. Kind of assay: MIC, microbroth dilution. The note with it: Mycolicibacterium smegmatis; Mycobacterium smegmatis ATCC700084, rifS; read-out: Antimicrobial activity (MIC).
The subject of assay [11] is Enterococcus faecalis ATCC29212. In words: MIC, microbroth dilution. The note with it: Enterococcus faecalis ATCC29212, rifS; read-out: Antimicrobial activity (MIC).

Turning to `CO[C@H]1/C=C/O[C@@]2(C)Oc3c(C)c(O)c4c(c3/C2=N/OCC(=O)N2CCN(c3cc5c(cc3F)c(=O)c(C(=O)O)cn5C3CC3)CC2)C(=O)C(N2CCOCC2)=C(NC(=O)/C(C)=C\C=C\[C@H](C)[C@H](O)[C@@H](C)[C@@H](O)[C@@H](C)[C@H](OC(C)=O)[C@@H]1C)C4=O` [Example 29, 11-Deoxy-3-(morpholin-4-yl)-11-{2-oxo-2-[4-(3-carboxy-1-cyclopropl-6-fluoro-4-oxo-1,4-dihydroquinolin-7-yl)piperazin-1-yl]ethoxyimino}rifamycin S], the MIC in [1] fell in the range of 0.125 to 8 µg/mL (≈ 0.107 to 6.85 µM); in [2] it was 0.03 to 2 µg/mL (≈ 0.0257 to 1.71 µM); in assay [3] it was 0.25 to 32 µg/mL (≈ 0.214 to 27.4 µM); in assay [4] it was 0.004 to 0.5 µg/mL (≈ 0.00343 to 0.428 µM); in [5], 0.125 to 16 µg/mL (≈ 0.107 to 13.7 µM); in assay [6] it was 0.004 to 0.5 µg/mL (≈ 0.00343 to 0.428 µM). Also, the MIC in [7] lay within 0.0005 to 0.063 µg/mL (≈ 0.000428 to 0.054 µM); in [8] it was 0.0002 to 0.125 µg/mL (≈ 0.000171 to 0.107 µM); in assay [9] it was 0.0005 to 0.063 µg/mL (≈ 0.000428 to 0.054 µM); in [10], 0.5 to 64 µg/mL (≈ 0.428 to 54.8 µM); in [11] it was 2 to 32 µg/mL (≈ 1.71 to 27.4 µM).
For `COc1c(N2CCN(C(=O)CO/N=C3/c4c5c(C)c(O)c6c4C(=O)C(N4CCOCC4)=C(NC(=O)/C(C)=C\C=C\[C@H](C)[C@H](O)[C@@H](C)[C@@H](O)[C@@H](C)[C@H](OC(C)=O)[C@H](C)[C@@H](OC)/C=C/O[C@@]3(C)O5)C6=O)C(C)C2)c(F)cc2c(=O)c(C(=O)O)cn(C3CC3)c12` (stereo partly shown) [Example 30, 11-Deoxy-3-(morpholin-4-yl)-11-{2-oxo-2-[4-(3-carboxy-1-cyclopropyl-6-fluoro-8-methoxy-4-oxo-1,4-dihydroquinolin-7-yl)-2-methylpiperazin-1-yl]ethoxyimino}rifamycin S], the MIC in assay [1] fell in the range of 0.125 to 8 µg/mL (≈ 0.103 to 6.6 µM); in assay [2] it was 0.03 to 2 µg/mL (≈ 0.0248 to 1.65 µM); in assay [3], 0.25 to 32 µg/mL (≈ 0.206 to 26.4 µM); in assay [4] it was 0.004 to 0.5 µg/mL (≈ 0.0033 to 0.413 µM); in assay [5], 0.125 to 16 µg/mL (≈ 0.103 to 13.2 µM); in assay [6], 0.004 to 0.5 µg/mL (≈ 0.0033 to 0.413 µM). Besides, the MIC lay in the range of 0.0005 to 0.063 µg/mL (≈ 0.000413 to 0.052 µM) in assay [7]; 0.0002 to 0.125 µg/mL (≈ 0.000165 to 0.103 µM) in [8]; 0.0005 to 0.063 µg/mL (≈ 0.000413 to 0.052 µM) in [9]; 0.5 to 64 µg/mL (≈ 0.413 to 52.8 µM) in assay [10]; 2 to 32 µg/mL (≈ 1.65 to 26.4 µM) in [11].
On to `CO[C@H]1/C=C/O[C@@]2(C)Oc3c(C)c(O)c4c(c3/C2=N/O)C(=O)C(N2CCN(c3cc5c(cc3F)c(=O)c(C(=O)O)cn5C3CC3)CC2)=C(NC(=O)/C(C)=C\C=C\[C@H](C)[C@H](O)[C@@H](C)[C@@H](O)[C@@H](C)[C@H](OC(C)=O)[C@@H]1C)C4=O` [Example 33, 11-Deoxy-3-[4-(3-carboxy-1-cyclopropyl-6-fluoro-4-oxo-1,4-dihydroquinolin-7-yl)piperazin-1-yl]-11-hydroxyiminorifamycin S], for which the MIC in assay [1] was in the range of 0.125 to 8 µg/mL (≈ 0.12 to 7.69 µM); in assay [2], 0.03 to 2 µg/mL (≈ 0.0288 to 1.92 µM); in assay [3], 0.25 to 32 µg/mL (≈ 0.24 to 30.8 µM); in assay [4] it was 0.004 to 0.5 µg/mL (≈ 0.00385 to 0.481 µM); in assay [5], 0.125 to 16 µg/mL (≈ 0.12 to 15.4 µM); in [6], 0.004 to 0.5 µg/mL (≈ 0.00385 to 0.481 µM). In addition, the MIC was 0.0005 to 0.063 µg/mL (≈ 0.000481 to 0.0606 µM) in [7]; 0.0002 to 0.125 µg/mL (≈ 0.000192 to 0.12 µM) in [8]; 0.0005 to 0.063 µg/mL (≈ 0.000481 to 0.0606 µM) in [9]; 0.5 to 64 µg/mL (≈ 0.481 to 61.5 µM) in [10]; 2 to 32 µg/mL (≈ 1.92 to 30.8 µM) in assay [11].
Regarding `CO[C@H]1/C=C/O[C@@]2(C)Oc3c(C)c(O)c4c(c3/C2=N/O)C(=O)C(N2CCOCC2)=C(NC(=O)/C(C)=C\C=C\[C@H](C)[C@H](O)[C@@H](C)[C@@H](O)[C@@H](C)[C@H](OC(C)=O)[C@@H]1C)C4=O` [Example 34, 11-Deoxy-3-(morpholin-4-yl)-11-hydroxyiminorifamycin S], the MIC lay within 0.125 to 8 µg/mL (≈ 0.157 to 10.1 µM) in assay [1]; 0.03 to 2 µg/mL (≈ 0.0377 to 2.51 µM) in assay [2]; 0.25 to 32 µg/mL (≈ 0.314 to 40.2 µM) in [3]; 0.004 to 0.5 µg/mL (≈ 0.00503 to 0.628 µM) in assay [4]; 0.125 to 16 µg/mL (≈ 0.157 to 20.1 µM) in assay [5]; 0.004 to 0.5 µg/mL (≈ 0.00503 to 0.628 µM) in assay [6]. Also, the MIC fell in the range of 0.0005 to 0.063 µg/mL (≈ 0.000628 to 0.0792 µM) in assay [7]; 0.0002 to 0.125 µg/mL (≈ 0.000251 to 0.157 µM) in [8]; 0.0005 to 0.063 µg/mL (≈ 0.000628 to 0.0792 µM) in [9]; 0.5 to 64 µg/mL (≈ 0.628 to 80.4 µM) in assay [10]; 2 to 32 µg/mL (≈ 2.51 to 40.2 µM) in assay [11].
For `CO/N=C1/c2c3c(C)c(O)c4c2C(=O)C(N2CCOCC2)=C(NC(=O)/C(C)=C\C=C\[C@H](C)[C@H](O)[C@@H](C)[C@@H](O)[C@@H](C)[C@H](OC(C)=O)[C@H](C)[C@@H](OC)/C=C/O[C@@]1(C)O3)C4=O` [Example 35, 11-Deoxy-3-(morpholin-4-yl)-11-methoxyiminorifamycin S], the MIC in assay [1] lay in the range of 0.125 to 8 µg/mL (≈ 0.154 to 9.88 µM); in [2], 0.03 to 2 µg/mL (≈ 0.037 to 2.47 µM); in [3], 0.25 to 32 µg/mL (≈ 0.309 to 39.5 µM); in [4], 0.004 to 0.5 µg/mL (≈ 0.00494 to 0.617 µM); in [5] it was 0.125 to 16 µg/mL (≈ 0.154 to 19.8 µM); in assay [6], 0.004 to 0.5 µg/mL (≈ 0.00494 to 0.617 µM). Further, the MIC lay in the range of 0.0005 to 0.063 µg/mL (≈ 0.000617 to 0.0778 µM) in assay [7]; 0.0002 to 0.125 µg/mL (≈ 0.000247 to 0.154 µM) in [8]; 0.0005 to 0.063 µg/mL (≈ 0.000617 to 0.0778 µM) in assay [9]; 0.5 to 64 µg/mL (≈ 0.617 to 79 µM) in assay [10]; 2 to 32 µg/mL (≈ 2.47 to 39.5 µM) in assay [11].
